Each molecule was assayed against T1, human H1 receptor (Homo sapiens, UniProt P35367) (assay: Histamine H1 receptor binding, competition displacement of [3H]-pyrilamine). Details: displacement of 1 nM [3H]-pyrilamine; membranes from recombinant CHO-K1 cells expressing the human H1 receptor; 1 hour at room temperature; read-out: H1 pKi/[1328_S] (converted).
T1 construct: purchased Euroscreen SA, Brussels, Belgium ES-390-M; host or cells: CHO-K1
Method: Histamine H1 receptor binding activity of compounds of the invention was assessed by competition displacement of 1 nM [3H]-pyrilamine (Amersham, Bucks, Product code TRK 608, specific activity 30 Ci/mmol) to 2 μg membranes prepared from recombinant CHO-K1 cells expressing the human H1 receptor (Euroscreen SA, Brussels, Belgium, product code ES-390-M) in assay buffer (50 mM Tris pH 7.4 containing 2 mM MgCl2, 250 mM sucrose and 100 mM NaCl) for 1 hour at room temperature.

T1 sequence (P35367 whole entry): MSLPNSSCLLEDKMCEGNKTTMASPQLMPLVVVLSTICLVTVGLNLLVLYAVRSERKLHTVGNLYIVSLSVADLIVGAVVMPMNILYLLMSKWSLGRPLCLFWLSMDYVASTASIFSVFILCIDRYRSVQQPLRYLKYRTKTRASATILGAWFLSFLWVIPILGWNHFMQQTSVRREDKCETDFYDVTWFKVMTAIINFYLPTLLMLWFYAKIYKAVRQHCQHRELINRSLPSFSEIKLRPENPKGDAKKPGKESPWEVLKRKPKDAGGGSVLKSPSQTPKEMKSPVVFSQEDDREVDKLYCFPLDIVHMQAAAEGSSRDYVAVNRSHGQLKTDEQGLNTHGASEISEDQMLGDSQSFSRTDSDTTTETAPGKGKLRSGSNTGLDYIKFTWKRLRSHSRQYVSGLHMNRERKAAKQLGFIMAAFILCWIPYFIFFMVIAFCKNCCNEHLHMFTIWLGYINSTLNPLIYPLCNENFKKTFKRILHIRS

SMILES | Ki [nM]
CS(=O)(=O)c1cc(C(=O)N2CCC(CN3CCC(Oc4ccc(Cl)c(Cl)c4)CC3)CC2)ccc1O [Example 19, 4-[[4-(3,4-dichlorophenoxy)-1-piperidinyl]methyl]-1-[4-hydroxy-3-(methylsulfonyl)benzoyl]-piperidine] | 31.6
O=C(O)Cc1ccccc1C(=O)N1CCC(CN2CCC(Oc3ccc(Cl)c(Cl)c3)CC2)CC1 [Example 12, 2-[[4-[[4-(3,4-dichlorophenoxy)-1-piperidinyl]methyl]-1-piperidinyl]carbonyl]-benzeneacetic acid] | 251

Next, values leading:

Ki [nM] | SMILES
63.1 | Cc1c(Cl)ccc(OC2CCN(CC3CCN(C(=O)c4ccccc4C(=O)O)CC3)CC2)c1Cl [Example 2, 2-[[4-[[4-(2,4-Dichloro-3-methylphenoxy)-1-piperidinyl]methyl]-1-piperidinyl]carbonyl]-benzoic acid]
316 | O=C(O)c1ccccc1C(=O)N1CCC(CN2CCC(Oc3ccc(Cl)c(Cl)c3)CC2)CC1 [Example 1, 2-[[4-[[4-(3,4-dichlorophenoxy)-1-piperidinyl]methyl]-1-piperidinyl]carbonyl]-benzoic acid]
200 | Cc1c(OC2CCN(CC3CCN(C(=O)c4ccccc4C(=O)O)CC3)CC2)ccc(Cl)c1Cl [Example 3, 2-[[4-[[4-(3,4-Dichloro-2-methylphenoxy)-1-piperidinyl]methyl]-1-piperidinyl]carbonyl]-benzoic acid]

Source: US20060281726A1, “Piperidine derivatives for the treatment of chemokine or h1 mediated disease state” (priority 2003, published 2006)
